Data: ChEMBL document CHEMBL3045730, “An efficient anticancer histone deacetylase inhibitor and its analogues for human HDAC8” (Med Chem Res, 2012)

Target: T1, Histone deacetylase 8 (Homo sapiens, UniProt Q9BY41)
T1 sequence (Q9BY41 whole entry): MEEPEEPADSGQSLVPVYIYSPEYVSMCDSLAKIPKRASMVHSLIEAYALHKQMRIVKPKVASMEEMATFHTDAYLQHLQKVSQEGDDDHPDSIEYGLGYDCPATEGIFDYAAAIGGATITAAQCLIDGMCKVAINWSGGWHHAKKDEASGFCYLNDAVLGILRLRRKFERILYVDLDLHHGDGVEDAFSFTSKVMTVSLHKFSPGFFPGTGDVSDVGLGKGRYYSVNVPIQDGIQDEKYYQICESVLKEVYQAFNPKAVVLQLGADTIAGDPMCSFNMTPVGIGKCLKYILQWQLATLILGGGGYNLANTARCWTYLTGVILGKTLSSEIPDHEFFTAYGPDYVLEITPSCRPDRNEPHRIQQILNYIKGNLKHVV
Assay: Inhibition of Homo sapiens (human) HDAC8

**Q.** COc1ccc(CS(=O)(=O)Nc2ccc(/C=C\C(=O)NO)cc2)cc1 was tested. Which IC50 did it give?
**A.** 60 nM

**Q.** With O=C(NO)c1ccc(CCCc2ccccc2)cc1 as the molecule, how does the IC50 read?
**A.** 1000 nM

**Q.** O=C(CCCCCCCN1C(=O)c2ccccc2C1=O)NO was tested. Which IC50 did it give?
**A.** 71.4 nM

**Q.** O=C(NCc1ccc(C(=O)Nc2ccccc2)cc1)OCc1cccnc1 was tested. Which IC50 did it give?
**A.** > 100000 nM

**Q.** For O=C(/C=C/C=C/c1ccc(-c2ccccc2)cc1)NO, which IC50 is on record?
**A.** > 5000 nM

**Q.** O=C(/C=C/c1ccc(NS(=O)(=O)c2ccc(Cl)c(Cl)c2)cc1)NO was tested. Which IC50 did it give?
**A.** 100 nM

**Q.** For O=C(CCCCCCCC(=O)c1ccc(-c2ccccc2)cc1)NO, which IC50 is on record?
**A.** 5 nM

**Q.** How did the IC50 turn out when Cc1ccc(S(=O)(=O)Nc2ccc(/C=C/C(=O)NO)cc2)cc1 was run?
**A.** 300 nM

**Q.** Cn1cc(C(=O)Cl)cc1/C=C/C(=O)NO was tested. Which IC50 did it give?
**A.** 9650 nM

**Q.** How did the IC50 turn out when Nc1ccc(NC(=O)c2ccc(CNC(=O)OCc3cccnc3)cc2)cc1 was run?
**A.** > 100000 nM

**Q.** Which IC50 does the source give for O=C(CCCCCC(=O)c1ccccc1)NO here?
**A.** 1500 nM

**Q.** CC(CCCCCC(=O)c1ccc2ccccc2c1)C(=O)NOCCCCC(=O)NO (stereo unspecified) was tested. Which IC50 did it give?
**A.** 600 nM

**Q.** CC(C)c1cc(C(C)C)c(C(C)C)cc1CS(=O)(=O)Nc1ccc(/C=C\C(=O)NO)cc1 was tested. Which IC50 did it give?
**A.** 600 nM

**Q.** With O=C(NCc1ccc(C(=O)Nc2ccccc2O)cc1)OCc1cccnc1 as the molecule, how does the IC50 read?
**A.** 2200 nM

**Q.** How did the IC50 turn out when COc1ccc(N)c(NC(=O)c2ccc(CNC(=O)OCc3cccnc3)cc2)c1 was run?
**A.** 4600 nM

**Q.** Cc1ccc(NC(=O)c2ccc(CNC(=O)OCc3cccnc3)cc2)c(N)c1 was tested. Which IC50 did it give?
**A.** > 100000 nM

**Q.** How did the IC50 turn out when O=C(CCCCCCC(=O)c1ccccc1)NO was run?
**A.** 500 nM

**Q.** Which IC50 does the source give for O=C(CCCCCCCC(=O)c1ccccc1)NO here?
**A.** 65 nM

**Q.** How did the IC50 turn out when O=C(CCCCCCC/C(=N\O)c1ccc(-c2ccccc2)cc1)NO was run?
**A.** 4 nM

**Q.** For O=C(CCCCCCCC(=O)c1ccc(N2CCN(c3ccccc3)CC2)cc1)NO, which IC50 is on record?
**A.** 4.5 nM

**Q.** Nc1cc(Cl)ccc1NC(=O)c1ccc(CNC(=O)OCc2cccnc2)cc1 was tested. Which IC50 did it give?
**A.** 40000 nM

**Q.** How did the IC50 turn out when O=C(CCc1ccc(NS(=O)(=O)c2ccccc2)cc1)NO was run?
**A.** 100 nM

**Q.** How did the IC50 turn out when O=C(CCCCCCCC(=O)c1ccc(C(F)(F)F)cc1)NO was run?
**A.** 45 nM

**Q.** How did the IC50 turn out when COc1ccccc1C(=O)CCCCCCCC(=O)NO was run?
**A.** 95 nM

**Q.** COc1ccc(C(=O)CCCCCCCC(=O)NO)cc1 was tested. Which IC50 did it give?
**A.** 15 nM

**Q.** For CC(=O)Nc1ccccc1NC(=O)c1ccc(CNC(=O)OCc2cccnc2)cc1, which IC50 is on record?
**A.** > 100000 nM

**Q.** For O=C(CCCCCCCC(=O)c1ccc(Br)cc1)NO, which IC50 is on record?
**A.** 45 nM

**Q.** How did the IC50 turn out when O=C(CCCCCC/C=C/c1ccc2ccccc2c1)NO was run?
**A.** 6 nM

**Q.** How did the IC50 turn out when O=C(CCCCCCCC(=O)c1ccc(N2CCCCC2)cc1)NO was run?
**A.** 9.5 nM

**Q.** How did the IC50 turn out when O=C(/C=C/c1ccc(Cc2ccc(CO)cc2)cc1)NO was run?
**A.** 20 nM

**Q.** How did the IC50 turn out when O=C(CCCCCCC/C(=N\O)c1ccc2ccccc2c1)NO was run?
**A.** 8.5 nM

**Q.** O=C(/C=C/c1ccc(NS(=O)(=O)c2ccc(Cl)cc2Cl)cc1)NO was tested. Which IC50 did it give?
**A.** 300 nM

**Q.** How did the IC50 turn out when O=C(CCCCCCCCc1ccc2ccccc2c1)NO was run?
**A.** 25 nM

**Q.** Which IC50 does the source give for O=C(CCCCCCC(=O)c1ccc2ccccc2c1)NO here?
**A.** 35 nM

**Q.** With O=C(Cc1ccc(NS(=O)(=O)c2ccccc2)cc1)NO as the molecule, how does the IC50 read?
**A.** 900 nM

**Q.** With O=C(CCCCCCCC(=O)c1cccnc1)NO as the molecule, how does the IC50 read?
**A.** 153 nM

**Q.** With O=C(/C=C/c1ccc(Cc2ccc(O)c(Cl)c2)cc1)NO as the molecule, how does the IC50 read?
**A.** 460 nM

**Q.** Nc1ccc(Cl)cc1NC(=O)c1ccc(CNC(=O)OCc2cccnc2)cc1 was tested. Which IC50 did it give?
**A.** 7700 nM

**Q.** How did the IC50 turn out when Cc1cccc(NC(=O)c2ccc(CNC(=O)OCc3cccnc3)cc2)c1N was run?
**A.** > 100000 nM

**Q.** Which IC50 does the source give for Cc1ccc(N)c(NC(=O)c2ccc(CNC(=O)OCc3cccnc3)cc2)c1 here?
**A.** 2800 nM

**Q.** How did the IC50 turn out when O=C(/C=C/c1cccc(-c2ccc(O)cc2)c1)NO was run?
**A.** 320 nM

**Q.** With CC(=O)c1cc(/C=C/C(=O)NO)n(C)c1 as the molecule, how does the IC50 read?
**A.** 11300 nM

**Q.** C=C(CCCCCCCC(=O)NO)c1ccc2ccccc2c1 was tested. Which IC50 did it give?
**A.** 8 nM

**Q.** Which IC50 does the source give for Nc1ccc(F)cc1NC(=O)c1ccc(CNC(=O)OCc2cccnc2)cc1 here?
**A.** 6000 nM

**Q.** For Nc1cccc(NC(=O)c2ccc(CNC(=O)OCc3cccnc3)cc2)c1, which IC50 is on record?
**A.** > 100000 nM

**Q.** For O=C(CCc1ccc(-c2ccc(O)cc2)cc1)NO, which IC50 is on record?
**A.** 1700 nM

**Q.** For COc1ccc(CS(=O)(=O)Nc2ccc(/C=C\C(=O)NO)cc2)cc1OC, which IC50 is on record?
**A.** 90 nM

**Q.** Which IC50 does the source give for Cn1cc(C=O)cc1CCC(=O)NO here?
**A.** 52600 nM

**Q.** Which IC50 does the source give for O=C(CCCCCCCC(=O)c1ccc(-c2ccc(Br)cc2)cc1)NO here?
**A.** 2 nM

**Q.** For COc1ccc(C(=O)CCCCCCC(=O)NO)cc1, which IC50 is on record?
**A.** 450 nM

**Q.** With O=C(CCCCCCCC(O)c1ccc2ccccc2c1)NO (stereo unspecified) as the molecule, how does the IC50 read?
**A.** 35 nM

**Q.** For CC(C)(C)c1ccc(CS(=O)(=O)Nc2ccc(/C=C\C(=O)NO)cc2)cc1, which IC50 is on record?
**A.** 100 nM

**Q.** Which IC50 does the source give for Cn1cc(C=O)cc1/C=C/C(=O)NO here?
**A.** 12300 nM

**Q.** How did the IC50 turn out when O=C(CCCCCCCCC(=O)c1ccccc1)NO was run?
**A.** 135 nM

**Q.** For COc1ccc(NC(=O)c2ccc(CNC(=O)OCc3cccnc3)cc2)c(N)c1, which IC50 is on record?
**A.** 44000 nM

**Q.** With C/C(=C\Cc1ccc(NS(=O)(=O)c2ccccc2)cc1)CC(=O)NO as the molecule, how does the IC50 read?
**A.** 2000 nM
